# Data from patent US6365178B1, “Method of making pressure sensitive adhesive matrix patches for transdermal drug delivery using hydrophilic salts of drugs and hydrophobic pressure sensitive adhesive dispersions” (priority 1996, dated 2002).
# Counter-ions that a name gives are not always drawn.
# How the values were obtained:
# [1] = Visual/microscopic observation of matrix films for drug crystals after preparation and on storage (physical stability); assay type: physicochemical; conditions: for Drug crystals in dried films: organic solvent-based adhesives MA-24, DUROTAK 2979
# Description: As used herein, “physical stability” of a drug in a matrix patch includes the lack of recrystallization of the drug in the dried adhesive layer of the patch.
# Pressure sensitive adhesive matrix systems described herein were prepared as follows. First, the solids content of a water-based or solvent-based adhesive in liquid form was determined by placing a known weight of liquid in a weighed aluminum dish and evaporating the solvents overnight in a 70° C. convection oven. The content of solid adhesive in the liquid was calculated by dividing the adhesive solid weight after drying by the initial total liquid weight. In some cases, the polyisobutylene (PIB) adhesives were prepared from polyisobutylene solids. The solid PIB was first dissolved in heptane to achieve a final solid content of about 30% by weight, and then the exact solid content was determined as described above. Next, a weighed quantity of adhesive liquid was added to a glass bottle, and the solid adhesive weight was calculated from the known solid fraction of the given adhesive liquid. The drug substance (hydrophilic salt or free drug form) was weighed and added to the adhesive solution in a quantity necessary to achieve a selected dry matrix film composition. The liquid containing the adhesive polymer drug substance was then mixed overnight. […] After mixing, approximately 8 ml of the solution was dispensed on a silanized polyester release liner and film cast using a casting knife with a gap size appropriate to achieve a final dried thickness of approximately 0.05-0.1 mm. The cast was dried in a 70° C. convection oven for 15-30 minutes to yield a dried matrix onto which an 0.08 mm thick polyethylene backing film was laminated. These matrix systems were then used to conduct in vitro skin flux experiments as described below. […]
# The systems manufactured with the salt and the water-based adhesive dispersions were stored at room temperature and examined using optical microscopy at 100× magnification for the presence of drug crystals.
# [2] = Dissolution of drug substance in liquid adhesive or solvent during matrix preparation; assay type: physicochemical; conditions: for Dissolution in organic solvent-based adhesives / Dissolution in water-based adhesive dispersions: Example 1, 5% (w/w) in dried film; for Dissolution in organic solvent-based adhesives: MA-24, DUROTAK 2979; for Dissolution in water-based adhesive dispersions: PIB-500, NACOR 72-9965; for Dissolution in organic solvent system: Example 7, equivalent to 1% or 2% (w/w) diclofenac sodium
# Description: Pressure sensitive adhesive matrix systems described herein were prepared as follows. First, the solids content of a water-based or solvent-based adhesive in liquid form was determined by placing a known weight of liquid in a weighed aluminum dish and evaporating the solvents overnight in a 70° C. convection oven. The content of solid adhesive in the liquid was calculated by dividing the adhesive solid weight after drying by the initial total liquid weight. In some cases, the polyisobutylene (PIB) adhesives were prepared from polyisobutylene solids. […] Next, a weighed quantity of adhesive liquid was added to a glass bottle, and the solid adhesive weight was calculated from the known solid fraction of the given adhesive liquid. The drug substance (hydrophilic salt or free drug form) was weighed and added to the adhesive solution in a quantity necessary to achieve a selected dry matrix film composition. The liquid containing the adhesive polymer drug substance was then mixed overnight. […] The cast was dried in a 70° C. convection oven for 15-30 minutes to yield a dried matrix onto which an 0.08 mm thick polyethylene backing film was laminated. These matrix systems were then used to conduct in vitro skin flux experiments as described below.
# [3] = 5% (w/w) drug in Lord PIB-500 (water-based PIB) matrix, room temperature, microscopic
# [4] = Example 2, NACOR 72-9965, 1% or 2% (w/w)
# [5] = Example 2, TSR and DURO-TAK 2516, 1% or 2% (w/w)
# [6] = Example 7, TSR, equivalent to 1% or 2% (w/w) diclofenac sodium
# [7] = Example 8, Nacor 72-9965 with 5.0% Kollidon 90F, 12%
molecule,measurement,setting,value
"CC(C)(C)NCC(O)c1ccc(O)c(CO)c1 (stereo not drawn) [Albuterol Free Base, albuterol]",Observations: drug crystals,"[1]; 10% (w/w) in TSR (organic solvent-based acrylic), 59 weeks of storage at 40° C./75% RH, microscopic",Crystals were observed
"O=C1CC2(CCCC2)CC(=O)N1CCCCN1CCN(c2ncccn2)CC1 [Buspirone Free Base, buspirone]",Observations: crystals form within,[1]; [3],Crystals form within 3 days
same,Observations: crystals form within,"[1]; 5% (w/w) drug in MA-24 (organic solvent-based PIB) matrix, room temperature, microscopic",Crystals form within 11 days
same,Drug crystals in dried films,"[1]; Example 1, 5% (w/w)",visibly homogeneous and free from drug crystals
same,Recrystallization of buspirone in laminate,"[1]; PIB adhesive (MA-24)/buspirone free base/isocetyl alcohol 86/1.5/12.5% (w/w), room temperature and 40° C./70%RH for 3 weeks, microscopic",No recrystallization of buspirone occurred
same,Dissolution in organic solvent-based adhesives,[2],dissolved readily
same,Dissolution in water-based adhesive dispersions,[2],water insoluble
"O=C1CC2(CCCC2)CC(=O)N1CCCCN1CCN(c2ncccn2)CC1 [Buspirone HCl, buspirone hydrochloride]",Observations: no crystals observed after,[1]; [3],No crystals observed after 7 weeks
same,Observations: drug crystals,"[1]; 5% (w/w) drug in MA-24 (organic solvent-based PIB) matrix, immediately after preparation",crystals present
same,Drug crystals in dried films,"[1]; Example 1, 5% (w/w), hydrochloride",filled with drug crystals
same,Drug crystals in dried film,"[1]; Example 1, water-based adhesive dispersions PIB-500, NACOR 72-9965, 5% (w/w)",no crystals were found
same,Drug crystals in dried adhesive matrix,[1]; [4],visibly free of drug crystals
same,Drug crystals in final dried casts,[1]; [5],contained visible solid drug crystals
same,Drug crystals in laminate,"[1]; PIB adhesive (MA-24)/buspirone hydrochloride/isocetyl alcohol 86/1.5/12.5% (w/w), naked eye and microscopic",filled with buspirone crystals
same,Results: buspirone crystals in resulting cast,"[1]; Table 6, Chloroform",cast contained extensive buspirone crystals.
same,Results: buspirone crystals in resulting cast,"[1]; Table 6, Ethyl acetate",resulting cast contained extensive buspirone crystals.
same,Results: casting of mixture,"[1]; Table 6, Methanol, adhesive formed a gel-like ball",impossible to cast
same,Results: buspirone crystals in resulting cast,"[1]; Table 6, Toluene",contained extensive buspirone crystals.
same,Results: buspirone crystallization in resulting cast,"[1]; Table 6, Water, buspirone only in water-rich phase",extensively within 24 hours after casting.
same,Dissolution in organic solvent-based adhesives,[2]; hydrochloride,did not dissolve
same,Dissolution in water-based adhesive dispersions,[2]; hydrochloride,dissolved readily
same,Dissolution in water-based adhesive dispersion,[2]; [4],dissolved completely
same,Dissolution in organic solvents of solvent-based adhesives,[2]; [5],did not dissolve completely
same,Dissolution in acetone,"[2]; Example 3, 0.70 g in 9.2 g acetone",did not completely dissolve
same,Dissolution in acetone/isocetyl alcohol mixture,"[2]; Example 3, 0.70 g, 9.2 g acetone, 6.1 g isocetyl alcohol",did not completely dissolve
same,Dissolution in acetone/isocetyl alcohol/PIB adhesive mixture,"[2]; Example 3, blended with MA-24 organic solvent-based PIB adhesive",did not completely dissolve
same,Results: dissolution in solvent and in solvent/isocetyl alcohol/PIB adhesive mixture,"[2]; Table 6, Acetone 12.0 g, 0.7 g drug",Buspirone hydrochloride (0.7 g) did not dissolve in
same,Results: effect of addition of solvent solution PIB adhesive,"[2]; Table 6, Chloroform","resulted in precipitation of buspirone, and the resulting"
same,Results: dissolution in solvent and solvent/isocetyl alcohol mixture,"[2]; Table 6, Chloroform 12.0 g, 0.7 g drug",Buspirone hydrochloride (0.7 g) dissolved in chloroform
same,Results: dissolution in solvent and in solvent/isocetyl alcohol/PIB adhesive mixture,"[2]; Table 6, Ethyl acetate 12.0 g, 0.7 g drug",Buspirone hydrochloride (0.7 g) did not dissolve in
same,Results: behaviour of solvent/isocetyl alcohol/PIB adhesive mixture,"[2]; Table 6, Methanol",phase separated
same,Results: dissolution in solvent,"[2]; Table 6, Methanol 12.0 g, 0.7 g drug",Buspirone hydrochloride (0.7 g) dissolved in methanol
same,Results: dissolution in solvent and in solvent/isocetyl alcohol/PIB adhesive mixture,"[2]; Table 6, Toluene 12.0 g, 0.7 g drug",Buspirone hydrochloride (0.7 g) did not dissolve in
same,Results: behaviour of solvent/isocetyl alcohol/adhesive solution,"[2]; Table 6, Water",phase separated. The resulting cast contained distinct
same,Results: dissolution in solvent,"[2]; Table 6, Water 1.5 g, 0.7 g drug",Buspirone hydrochloride (0.7 g) dissolved in water
"CC(=O)CC(c1ccccc1)c1c(O)c2ccccc2oc1=O (stereo not drawn) [Warfarin free drug, warfarin]",Drug crystals in dry film,"[1]; Example 8, TSR, 12% (w/w), visible and microscopic",free from drug crystals
same,Dissolution in organic solvents,"[2]; Example 8, TSR, 12% (w/w)",dissolved readily
Clc1cccc(Cl)c1N=C1NCCN1 [clonidine HCl],Drug crystals in dried matrix,"[1]; Example 10, water-based PIB 500/BUTYL 100 (Lord), 2% (w/w)",visibly free of drug crystals
"Clc1cccc(Cl)c1N=C1NCCN1 [clonidine free base, clonidine]",Drug crystals in dry matrix film,"[1]; Example 10, VISTANEX MM L-100/LM-MH PIB blend, equivalent to 2% (w/w) HCl salt",free from drug crystals
same,Dissolution in organic solvent solution,"[2]; Example 10, VISTANEX MM L-100/LM-MH PIB blend in organic solvents, equivalent to 2% (w/w) HCl salt",dissolved readily
"O=C(O)Cc1ccccc1Nc1c(Cl)cccc1Cl [diclofenac free acid, diclofenac]",Drug crystals in dried matrix,[1]; [6],visually free of drug crystals
same,Dissolution in organic solvent system,[2]; TSR,completely dissolved
O=C(O)Cc1ccccc1Nc1c(Cl)cccc1Cl [diclofenac sodium],Drug crystals in dried matrix,[1]; [6],contained crystallized drug
same,Drug crystals in dried matrices,"[1]; Example 7, water-based NACOR 72-9965 and ROBOND PS20, 1% or 2% (w/w)",physically stable and visually free of drug crystals
same,Dissolution in organic solvent system,[2]; TSR,not sufficiently soluble
CCN(CC)CC(=O)Nc1c(C)cccc1C [lidocaine HCl],Drug crystals in dried matrix,"[1]; Example 9, DURO-TAK 2516, equivalent to 1% (w/w) HCl salt, HCl",contains visible solid drug crystals
same,Drug crystals in dried matrix,"[1]; Example 9, NACOR 72-9965, 1% (w/w)",physically stable and free of drug crystals
"CCN(CC)CC(=O)Nc1c(C)cccc1C [lidocaine free base, lidocaine]",Drug crystals in dried matrix,"[1]; Example 9, DURO-TAK 2516, equivalent to 1% (w/w) HCl salt",visibly free of drug crystals
"CC(=O)CC(c1ccccc1)c1c(O)c2ccccc2oc1=O (stereo not drawn) [sodium warfarin, warfarin sodium]",Drug crystals in dry matrix,[1]; [7],free from visible and microscopic drug crystals
same,Dissolution in water-based dispersion,[2]; [7],dissolved readily
albuterol sulfate,Observations: drug crystals,"[1]; 10% (w/w) in NACOR 9965 (water-based acrylic) with 5% KOLLIDON 90F, 59 weeks of storage at 40° C./75% RH, microscopic",No crystals were observed
